# “And” between values parts separate entries of the source, which are not always exact repeats. Identical values can stand only once. Like-named read-outs stand apart in the source and are kept apart here. Where a SMILES comes first, the peptide text is derived from it. [ ]: non-standard residue; d: D form. The star is where a group is joined. NHCH2CH2OH = OCCN*; For = O=C*
# How the values were obtained:
# [1] = tested on: Enterococcus faecalis JCM5803
# Description: (§1) Third, 1 was subjected to five pathogenic Gram-positive bacteria.
# (§2) Evaluation of antibacterial spectra of purified peptides. The MIC assay was performed according to the Clinical and Laboratory Standards Institute protocols. The antibacterial activities of the purified peptides A1, B01–B04, B11–B13, B21, and B22 were measured using the broth microdilution method. 6 Serial dilutions of the peptides were prepared in cation adjusted Mueller Hinton Broth. Each dilution (100 µL) was dispensed to each well of the round-bottom plate to obtain final concentrations ranging from 64 µg/mL to 0.00024 µg/mL. Bacteria were grown at 37 °C overnight on Tryptic Soy Broth or Mueller Hinton Broth agar plates.
# (§3) The bacterial colonies were suspended in 0.9% saline to obtain OD 625 of 0.08–0.13 using a spectrophotometer UV-1280 (Shimadzu). The resultant suspension was diluted with cation adjusted Mueller Hinton Broth (1/20). The resultant mixture (10 .0 µL) was inoculated to each well of the plates (approximately 5 × 10^4 CFU/well), mixed, and incubated at 37 °C for 18–24 h. The MIC value was determined as the minimum concentration that inhibited growth of bacteria. For Streptococcus species, cation adjusted Mueller Hinton Broth supplemented with 5% laked horse blood was used. […]
# [2] = tested on: Listeria monocytogenes 10403S
# Description: as §1, §2, §3
# [3] = tested on: Streptococcus pneumoniae NBRC 102642
# Description: as §1, §2, §3
# [4] = tested on: Streptococcus agalactiae JCM5671
# Description: as §1, §2, §3
# [5] = tested on: Streptococcus pyogenes SSI-9
# Description: as §1, §2, §3
# [6] = tested on: MSSA1 (methicillin-susceptible Staphylococcus aureus); assay type: cell-based
# Description: as §2, §3
# [7] = Description: Second, we examined the cytotoxicity toward mammalian cancer cells and hemolytic activity of 1. […] Hemolytic activity was evaluated by monitoring hemoglobin leakage from rabbit red blood cells as a consequence of membrane damage. The concentration of 1 required to cause 10% hemoglobin leakage (HC10) was 160 nM. Thus, the P388 cytotoxicity of 1 was 28-fold more sensitive than its hemolytic activity.
# Mammalian cytotoxicity assay of purified peptides.
# B22 was diluted with the growth medium with 2% DMSO to various concentrations as 5-fold serial dilution.
# The collected cells were resuspended into
# the growth medium at 2 × 10^4 cells/mL. Aliquots of the former medium (2% DMSO, 100 µL) containing
# peptides and the latter medium containing P388 cells (100 µL) were mixed in a 96-well cell culture plate
# (TR5003, TrueLine). The final concentration of P388 cells and DMSO were 1 × 10^4 cells/mL and 1%,
# respectively. […]
# were determined by WST -1 assay. A solution of 1-methoxy PMS and WST-1 in the growth medium
# (1-methoxy PMS 0.70 mg/mL in Milli-Q/WST-1 3.6 mg/mL in pH 7.4 HEPES buffer = 1/9) was added to
# each well of the plate (20.0 µL/well). The cells were incubated for 4 h under atmosphere of 5% CO 2 at
# 37 °C. The absorbance of each well at 415 nm was measured using a Benchmark microplate reader
# (Bio-Rad) or Thermo Scientifi c Multiskan GO (Thermo Fisher Scientific). The cytotoxicities of the purified
# peptides were evaluated as IC 50 (nM) by means of three replicates. Sigmoidal curve fittings were performed
# [8] = H+/Na+ transport assay of purified peptides; details: for Supplementary Figure 5 dose-response value (H+/Na+ transport): three replicate lines
# [9] = Membrane disruption assay of purified peptides (carboxyfluorescein leakage); assay type: biochemical; set-up: key: % lysis; Triton X-100 = 100%, DMSO = 0%; details: three replicate lines
# Description: Membrane disruption assay of purified peptides. 5(6)-Carboxyfluorescein (CF)-encapsulated large […]
# through Nuclepore polycarbonate filters mounted in the mini-extruder apparatus. A solution of egg yolk phosphatidylcholine (EYPC, 22.0 mg, 28.9 µmol) in CHCl3 (225 µL) and egg yolk phosphatidylglycerol (1.2 0 […]
# mM HEPES, 100 mM NaCl, 20 mM CF) by sonication. After five -times freeze-thaw cycles, the lipid […]
# concentration of the resultant CF -encapsulated LUV suspension was deduced from the phosphatidylcholine concentration determined by using Phospholipid C -Test Wako. The lipid concentration of the LUV […]
# as 5-fold serial dilution. The solution of peptide (2.0 µL) and the CF-encapsulated LUV suspension (200 […]
# The resultant suspension was incubated at room temperature for 30 min. The fluorescence (Ex. 490 nm/Em. 517 nm) of each well was measured on Gemini EM microplate reader. Triton X-100/H2O (5/95, 3.0 µL), DMSO (2.0 µL), and the LUV suspension were mixed in each plate to determine 100% lysis. […]
# was used to determine 0% lysis. The membrane disruption activities of tested peptides ( I) were normalized against 100% lysis by Triton X-100 (Imax) and 0% lysis by DMSO ( I0) according to Supplementary Equation 2 , where Ix is the fluorescence intensity.
# The membrane disruption activities of the purified peptides were plotted as means of three replicates (Supplementary Figure 1).
compound,measurement,setting,value
CC(C)C[C@@H](NC(=O)[C@H](Cc1c[nH]c2ccccc12)NC(=O)[C@H](NC(=O)[C@@H](NC(=O)[C@H](NC(=O)[C@H](C)NC(=O)[C@H](NC(=O)[C@H](C)NC(=O)CNC(=O)[C@@H](NC=O)C(C)C)C(C)C)C(C)C)C(C)C)C(C)C)C(=O)N[C@@H](Cc1c[nH]c2ccccc12)C(=O)N[C@@H](C(=O)N[C@@H](Cc1c[nH]c2ccccc12)C(=O)N[C@@H](C(=O)N[C@@H](Cc1c[nH]c2ccccc12)C(=O)NCCO)C(C)C)C(C)C [B01] (For-VGA[dV]A[dV]V[dV]W[dL]W[dV]W[dV]W-NHCH2CH2OH),antibacterial activity/MIC,[1]; E. faecalis,0.5 µg/mL
same,Antibacterial activity MIC,[1]; JCM5803,0.27 µM
same,Antibacterial activity MIC,[2]; 10403S,4.3 µM
same,antibacterial activity/MIC,[2]; L. monocytogenes,8 µg/mL
same,Antibacterial activity MIC,[3]; NBRC 102642,0.0021 µM
same,antibacterial activity/MIC,[3]; S. pneumoniae,0.0039 µg/mL
same,Antibacterial activity MIC,[4]; JCM5671,8.7 µM
same,antibacterial activity/MIC,[4]; S. agalactiae,16 µg/mL
same,antibacterial activity/MIC,[5]; S. pyogenes,0.03 µg/mL
same,Antibacterial activity MIC,[5]; SSI-9,0.016 µM
same,antibacterial activity/MIC,[6],16 µg/mL
same,IC50,[7]; Cytotoxicity IC50,17 nM
same,IC50,[7]; cytotoxicity against P388 cells/IC50,17.5 ± 12 nM
same,Supplementary Figure 5 dose-response value (H+/Na+ transport),[8]; concentration 0.000512 nM,1.909 and 4.796 and 3.187
same,Supplementary Figure 5 dose-response value (H+/Na+ transport),[8]; concentration 0.00256 nM,2.582 and 3.582 and 5.168
same,Supplementary Figure 5 dose-response value (H+/Na+ transport),[8]; concentration 0.0128 nM,3.806 and 6.172 and 6.274
same,Supplementary Figure 5 dose-response value (H+/Na+ transport),[8]; concentration 0.064 nM,6.1 and 7.567 and 7.349
same,Supplementary Figure 5 dose-response value (H+/Na+ transport),[8]; concentration 0.32 nM,11.2834 and 14.5673 and 12.3484
same,Supplementary Figure 5 dose-response value (H+/Na+ transport),[8]; concentration 1.6 nM,32.2794 and 31.2161 and 30.2392
same,Supplementary Figure 5 dose-response value (H+/Na+ transport),[8]; concentration 8 nM,59.2885 and 57.8145 and 59.5121
same,Supplementary Figure 5 dose-response value (H+/Na+ transport),[8]; concentration 40 nM,71.8328 and 71.2991 and 68.3245
same,Supplementary Figure 5 dose-response value (H+/Na+ transport),[8]; concentration 200 nM,69.4784 and 69.9514 and 71.5477
same,Supplementary Figure 5 dose-response value (H+/Na+ transport),[8]; concentration 1000 nM,71.9268 and 73.661 and 73.9278
same,Supplementary Figure 5 dose-response value (H+/Na+ transport),[8]; concentration 5000 nM,81.6644 and 79.4929 and 76.8567
same,EC50,"[8]; read-out: EC50, H+/Na+ transport assay, 1st experiment",2.67 nM
same,EC50,"[8]; read-out: EC50, H+/Na+ transport assay, 2nd experiment",1.67 nM
same,EC50,"[8]; read-out: EC50, H+/Na+ transport assay, 3rd experiment",2.49 nM
same,EC50,"[8]; read-out: H+/Na+ transport activity EC50, EYPC/EYPG (19:1) LUVs",2.3 nM
same,EC50,"[8]; read-out: H+/Na+ transport activity/EC50, mean ± SD of three independent experiments",2.28 ± 0.54 nM
same,Supplementary Figure 1 dose-response value,[9]; concentration 0.000512 nM,5.613 and 12.0264 and 5.319
same,Supplementary Figure 1 dose-response value,[9]; concentration 0.00256 nM,11.158 and 7.538 and 10.5473
same,Supplementary Figure 1 dose-response value,[9]; concentration 0.0128 nM,8.299 and 14.9537 and 14.0939
same,Supplementary Figure 1 dose-response value,[9]; concentration 0.064 nM,5.499 and 8.531 and 5.078
same,Supplementary Figure 1 dose-response value,[9]; concentration 0.32 nM,13.2144 and 15.7695 and 7.692
same,Supplementary Figure 1 dose-response value,[9]; concentration 1.6 nM,9.848 and 4.6318 and 9.4348
same,Supplementary Figure 1 dose-response value,[9]; concentration 8 nM,14.4288 and 20.3717 and 10.7944
same,Supplementary Figure 1 dose-response value,[9]; concentration 40 nM,26.5947 and 14.0138 and 18.3251
same,Supplementary Figure 1 dose-response value,[9]; concentration 200 nM,33.1976 and 27.0157 and 30.6543
same,Supplementary Figure 1 dose-response value,[9]; concentration 1000 nM,29.7517 and 27.7024 and 34.1347
same,Supplementary Figure 1 dose-response value,[9]; concentration 5000 nM,48.3001 and 45.6479 and 77.7437
